Values after ≈ are worked out from the molar mass of the structure shown. Values joined by “and” are separate entries in the source; they are usually repeats but may differ in a detail not shown here. Identical values can stand only once. Like-named read-outs stand apart in the source and are kept apart here.
What was measured:
powdery mildew [1] = assay type: in vivo
rust [2] = assay type: in vivo; settings: dose as in E145
leaf blight [3] = assay type: in vivo
[4] = parameters: species or system wheat; settings: in vivo
leaf blight [5] = assay type: in vivo; settings: dose as in E162
leaf blight [6] = assay type: in vivo; settings: dose as in E145
Fusarium graminearum = assay: microbe, parasite or virus in culture; assay type: cell-based
wheat scab [7] = assay type: in vivo, Fusarium spp.
powdery mildew [8] = assay type: in vivo; settings: dose as in E162
powdery mildew fungus = assay type: in vivo; settings: seed treatment; dose as in E133
powdery mildew [9] = assay type: in vivo; remark: listed apart in the source
rust [10] = assay type: in vivo; settings: dose as in E162
[11] = assay type: in vivo, wheat; settings: dose as in E162
Tri5 gene = assay type: cell-based, Fusarium asiaticum
[12] = system: DON toxin synthesis capability of thalli; parameters: species or system Fusarium spp.; settings: in vivo
wheat scab [13] = assay type: in vivo, Fusarium spp.; remark: listed apart in the source
wheat scab [14] = assay type: in vivo, Fusarium spp.; remark: listed apart in the source
[15] = assay type: in vivo, wheat; settings: vs control; dose as in E145
[16] = Fusarium graminearum, read-out: Growth Inhibition Rate F.g
[17] = Serial 5: preparation 50 g/mu, jinggangmycin 10 g ai./mu alone
[18] = Serial 6: preparation 37.5 g/mu, jinggangmycin 7.5 g ai./mu alone
[19] = Serial 7: preparation 15 g/mu, jinggangmycin 3 g ai./mu alone
[20] = Serial 8: preparation 50 g/mu, metconazole 10 g ai./mu alone
[21] = Serial 10: preparation 15 g/mu, metconazole 3 g ai./mu alone

Compound: OCC1=C[C@H](NC2C[C@H](CO)[C@@H](OC3O[C@H](CO)[C@@H](O)[C@H](O)[C@H]3O)[C@H](O)[C@H]2O)[C@H](O)[C@@H](O)[C@@H]1O (stereo partly drawn) [Jinggangmycin A, jinggangmycin A]
- Disease Index Prevention Effect % Powdery Mildew (powdery mildew [1]; Serial 11: jinggangmycin 36 g ai./mu alone): 8.5%
- Disease Index Prevention Effect % Powdery Mildew (powdery mildew [1]; Serial 12: jinggangmycin 18 g ai./mu alone): 7.8%
- Disease Index Prevention Effect % Powdery Mildew (powdery mildew [1]; Serial 13: jinggangmycin 15 g ai./mu alone): 7.6%
- Disease Index Prevention Effect % Powdery Mildew (powdery mildew [1]; Serial 14: jinggangmycin 7.5 g ai./mu alone): 0%
- Disease Index Prevention Effect % Powdery Mildew (powdery mildew [1]; Serial 15: jinggangmycin 5 g ai./mu alone): 0%
- Disease Index Prevention Effect % Powdery Mildew (powdery mildew [1]; Serial 16: jinggangmycin 2.5 g ai./mu alone): 0%
- Disease Index Prevention Effect % Powdery Mildew (powdery mildew [1]; Serial 17: jinggangmycin 3 g ai./mu alone): 0%
- Disease Index Prevention Effect % Powdery Mildew (powdery mildew [1]; Serial 18: jinggangmycin 1.5 g ai./mu alone): 0%
- Disease Index Prevention Effect % Powdery Mildew (powdery mildew [1]; Serial 19: jinggangmycin 1 g ai./mu alone): 0%
- Disease Index Prevention Effect % Powdery Mildew (powdery mildew [1]; Serial 20: jinggangmycin 0.5 g ai./mu alone): 0%
- Disease Index Prevention Effect % Rust (rust [2]): 4.9% and 3.8% and 0%
- Disease Index Prevention Effect % Leaf Blight (leaf blight [3]; Serial 5: preparation 100, jinggangmycin 20, metconazole 0 g ai./mu): 7.8%
- Thousand Kernel Weight [4]: 43.2 g and 42.8 g and 42.9 g and 42.6 g and 42.0 g and 39.6 g
- Disease Index Prevention Effect % Leaf Blight (leaf blight [5]): 8.5% and 7.9% and 0%
- Disease Index Prevention Effect % Leaf Blight (leaf blight [6]): 8.3% and 7.8% and 0%
- inhibition at 50 µg/mL (Fusarium graminearum; [16]): 6.5%
- inhibition at 50 µg/mL (Fusarium graminearum; Fusarium graminearum, read-out: inhibitory effect on the growth of the two types of fusaria): 6.5 to 7.8%
- Average Fungal Colony Diameter F.g (Fusarium graminearum; Jinggangmycin A 0.1 μg/mL, sensitive strains): 76.3 mm
- Average Fungal Colony Diameter F.g (Fusarium graminearum; Jinggangmycin A 1.0 μg/mL, sensitive strains): 76.2 mm
- Average Fungal Colony Diameter F.g (Fusarium graminearum; Jinggangmycin A 10.0 μg/mL, sensitive strains): 75.4 mm
- Average Fungal Colony Diameter F.g (Fusarium graminearum; Jinggangmycin A 50.0 μg/mL, sensitive strains): 70.3 mm
- Disease Index Prevention Effect % Head Blight (wheat scab [7]; [17]): 32.4%
- Disease Index Prevention Effect % Head Blight (wheat scab [7]; [18]): 24.2%
- Disease Index Prevention Effect % Head Blight (wheat scab [7]; [19]): 0%
- Disease Index Prevention Effect % Powdery Mildew (powdery mildew [8]): 7.3% and 4.4% and 4.5% and 0%
- Incidence Prevention Effect % Powdery Mildew (powdery mildew fungus): 0% and 6.5%
- Disease Index Prevention Effect % Powdery Mildew (powdery mildew [9]; [17]): 12.6%
- Disease Index Prevention Effect % Powdery Mildew (powdery mildew [9]; [18]): 11.9%
- Disease Index Prevention Effect % Powdery Mildew (powdery mildew [9]; [19]): 0%
- Disease Index Prevention Effect % Rust (rust [10]): 5.1% and 3.6% and 0%
- Grain Toxin Content [11]: 2.89 μg/g of kernels and 3.24 μg/g of kernels and 3.86 μg/g of kernels and 4.20 μg/g of kernels and 4.77 μg/g of kernels
- Rate of Inhibition on Relative Expression Level of Tri5 Gene (Tri5 gene): 66% and 84% and 87% and 90% and 59%

Compound: CC1(C)CCC(Cc2ccc(Cl)cc2)C1(O)Cn1cncn1 (stereo not drawn) [Metconazole]
- Disease Index Prevention Effect % Powdery Mildew (powdery mildew [1]; Serial 21: metconazole 20 g ai./mu alone): 80.1%
- Disease Index Prevention Effect % Powdery Mildew (powdery mildew [1]; Serial 22: metconazole 18 g ai./mu alone): 74.6%
- Disease Index Prevention Effect % Powdery Mildew (powdery mildew [1]; Serial 23: metconazole 16 g ai./mu alone): 71.4%
- Disease Index Prevention Effect % Powdery Mildew (powdery mildew [1]; Serial 24: metconazole 10 g ai./mu alone): 63.4%
- Disease Index Prevention Effect % Powdery Mildew (powdery mildew [1]; Serial 25: metconazole 9 g ai./mu alone): 60.8%
- Disease Index Prevention Effect % Powdery Mildew (powdery mildew [1]; Serial 26: metconazole 8 g ai./mu alone): 58.6%
- Disease Index Prevention Effect % Powdery Mildew (powdery mildew [1]; Serial 27: metconazole 6 g ai./mu alone): 51.8%
- Disease Index Prevention Effect % Powdery Mildew (powdery mildew [1]; Serial 28: metconazole 3 g ai./mu alone): 26.4%
- Disease Index Prevention Effect % Rust (rust [2]): 83.8% and 78.4% and 66.7% and 41.9%
- Disease Index Prevention Effect % Leaf Blight (leaf blight [3]; Serial 6: preparation 100, jinggangmycin 0, metconazole 20 g ai./mu): 80.6%
- DON Synthesis Capability [12]: 20.16 and 19.80 and 19.96 and 19.54 and 19.20 and 19.38
- Theoretical Prevention Effect of Mixed Agent on Head Blight (wheat scab [13]; Abbott method, dose as in E145): 65.8 and 61.3 and 48.4 and 39.6
- Disease Index Prevention Effect % Head Blight (wheat scab [13]; sprayed twice, g ai. agent/mu, Jinggangmycin+Metconazole by row: r16 1+15, r17 3+10, r18 5+5, r19 5+10, r20 5+15, r21 10+3, r22 10+10, r23 10+15, r24 50+3, r25 50+10, r26 50+15, r27 100+5, r28 100+10, Jinggangmycin alone r29 100, r30 50, r31 10, r32 5, r33 3, r34 1, Metconazole alone r35 15, r36 10, r37 5, r38 3, r39 Carbendazim 40): 65.8% and 61.3% and 48.4% and 39.6%
- Thousand Kernel Weight [4]: 43.4 g and 42.8 g and 42.4 g and 40.4 g
- ED50 (Fusarium graminearum; F.g sensitive strains): 0.117 µg/mL (≈ 0.366 µM)
- inhibition at 0.0625 µg/mL (Fusarium graminearum; [16]): 30.7%
- inhibition at 0.125 µg/mL (Fusarium graminearum; [16]): 58.5%
- inhibition at 0.25 µg/mL (Fusarium graminearum; [16]): 75.7%
- inhibition at 0.5 µg/mL (Fusarium graminearum; [16]): 89.1%
- inhibition at 1 µg/mL (Fusarium graminearum; [16]): 96%
- inhibition at 0.1 µg/mL (Fusarium graminearum; Fusarium graminearum, read-out: inhibition rate on the hyphal growth of the head blight fungi): ~50%
- Average Fungal Colony Diameter F.g (Fusarium graminearum; Metconazole 0.0625 μg/mL, sensitive strains): 52.1 mm
- Average Fungal Colony Diameter F.g (Fusarium graminearum; Metconazole 0.125 μg/mL, sensitive strains): 31.2 mm
- Average Fungal Colony Diameter F.g (Fusarium graminearum; Metconazole 0.25 μg/mL, sensitive strains): 18.3 mm
- Average Fungal Colony Diameter F.g (Fusarium graminearum; Metconazole 0.5 μg/mL, sensitive strains): 8.2 mm
- Average Fungal Colony Diameter F.g (Fusarium graminearum; Metconazole 1.0 μg/mL, sensitive strains): 3.0 mm
- activity of metconazole relative to carbendazim (ED50) (Fusarium graminearum; sensitive strains): about four times
- activity of metconazole relative to phenamacril (ED50) (Fusarium graminearum; sensitive strains): about 1.5 times
- Disease Index Prevention Effect % Head Blight (wheat scab [7]; [20]): 75.6%
- Disease Index Prevention Effect % Head Blight (wheat scab [7]; [21]): 39.1%
- Incidence Prevention Effect % Powdery Mildew (powdery mildew fungus): 75.0% and 68.5% and 61.0% and 40.0%
- Theoretical Prevention Effect on Head Blight % (wheat scab [14]; Abbott method, dose as in E162): 66.7% and 61.8% and 40.9% and 33.6%
- Disease Index Prevention Effect % Head Blight (wheat scab [14]; tank mixture sprayed twice, g ai. agent/mu, Jinggangmycin+Metconazole by row: r11 3+15, r12 5+10, r13 5+5, r14 10+5, r15 50+3, r16 100+3, Jinggangmycin alone r17 100, r18 50, r19 10, r20 5, r21 3, Metconazole alone r22 15, r23 10, r24 5, r25 3, r26 Polyketone 57): 66.7% and 61.8% and 50.9% and 33.6%
- Disease Index Prevention Effect % Powdery Mildew (powdery mildew [9]; [20]): 83.2%
- Disease Index Prevention Effect % Powdery Mildew (powdery mildew [9]; [21]): 69.2%
- DON Reduction Percentage (%) [15]: 88.4% and 79.9% and 71.4% and 66.6%
- Grain Toxin Content [11]: 2.01 μg/g of kernels and 2.24 μg/g of kernels and 2.38 μg/g of kernels and 2.94 μg/g of kernels

— patent publication US9949479B2 (priority 2015, dated 2018)
